Assay results published in article PMC8192908 (Scientific Reports, 2021).
Read-outs that look alike come from different tables or passages of the source.

What was measured:
mouse bone marrow cells [1] = conditions: cited from earlier work
ejaculated spermatozoa = experiment: Sperm motility in ejaculated spermatozoa (swim-up, manual assessment); assay type: cell-based, human; conditions: PTXm-1 0.25 mM; for progressive motility vs controls / total motility vs controls: 1 h; for progressive motility vs controls / total motility vs controls / percentage of total motile spermatozoa vs controls: PTX 1 mM; for percentage of total motile spermatozoa vs controls: 1 h and 24 h
Experimental: For the study, subjects with 2–7 days of sexual abstinence were asked to provide their ejaculates by masturbation. After the completion of semen analysis (WHO, 2010), the leftover semen sample from each subject was used for experiment within 1 h of collection and was equally divided into four groups. The semen samples were washed twice with EBSS media (with bicarbonate buffer) by centrifuging at 500 g for 8 min to remove the seminal plasma. […] The EBSS medium used was with bicarbonate buffer. The samples were incubated for 1 h at 37 °C and 5% CO2. The overlay containing motile fraction of capacitated spermatozoa were collected carefully without disturbing the pellet and used for further analysis. The swim-up fraction containing motile spermatozoa were assessed for motility using manual method and sperm motion characteristics using computer assisted sperm analysis (CASA) as described earlier. […] Percentage of spermatozoa with total and progressive motility was calculated. For CASA, 8 µL sperm suspension was placed on a clean microscopic slide, covered with coverslip (18 mm × 18 mm).

[2] = test system: spermatozoa from normozoospermic samples; experiment: Calcium ionophore-induced acrosome reaction assay; assay type: cell-based, human; conditions: PTX 1 mM, PTXm-1 0.25 mM
Experimental: The ionophore-induced acrosome reaction was assessed using a method described earlier. The swim-up fraction collected (at 1 and 2 h after incubation) from various groups were incubated with calcium ionophore A23187 (Sigma-Aldrich, Cat. No. C7522) at 37 °C for 1 h (N = 28, normozoospermic). Sperm suspension was washed with phosphate buffered solution (PBS), centrifuged at 300 g for 10 min and fixed on a coverslip using methanol. The spermatozoa were stained with Fluorescein isothiocyanate-conjugated Pisum sativum agglutinin (FITC-PSA, Sigma-Aldrich, Cat. No. L0770), washed with Milli-Q water, counterstained with propidium iodide (PI) and then mounted on slide using mounting media. Percentage of acrosome reacted spermatozoa (without green florescence in acrosome region) were counted in 500 spermatozoa by observing under fluorescence microscope (400x).

[3] = test system: spermatozoa from normozoospermic samples; experiment: Sperm DNA integrity by TUNEL assay; conditions: 24 h in vitro incubation; PTX 1 mM, PTXm-1 0.25 mM; control 6.5%
PDE10A-PTXm-1 complex = target: T1, PDE10A-PTXm-1 complex (Homo sapiens, UniProt Q9Y233); experiment: Competitive ITC: PTX titrated against PDE10A-PTXm-1 complex; assay type: binding
T1 construct: Catalytic domain of each protein was cloned between BamHI and XhoI restriction sites in; 6xHis-SUMO (N, cleaved yes); made in house; host or cells: E. coli Rosetta 2 (DE3)
T1 sequence (Q9Y233 718-1035 limits assumed, one chain of several): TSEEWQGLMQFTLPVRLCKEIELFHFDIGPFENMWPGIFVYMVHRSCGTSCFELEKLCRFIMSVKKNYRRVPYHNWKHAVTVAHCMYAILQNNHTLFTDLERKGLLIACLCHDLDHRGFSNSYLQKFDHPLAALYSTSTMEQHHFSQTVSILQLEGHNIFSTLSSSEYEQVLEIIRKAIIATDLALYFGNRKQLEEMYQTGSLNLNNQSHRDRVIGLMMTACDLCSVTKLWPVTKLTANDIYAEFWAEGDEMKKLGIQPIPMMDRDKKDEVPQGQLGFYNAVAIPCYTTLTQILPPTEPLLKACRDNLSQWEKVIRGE

[4] = test system: tyrosine phosphorylated sperm proteins; experiment: Tyrosine phosphorylation of sperm proteins by immunofluorescence; assay type: cell-based, human; conditions: PTX 1 mM, PTXm-1 0.25 mM; control 16%
Experimental: The cells were incubated with blocking solution (PBS containing 1% BSA and 0.1% Tween-20) for 1 h followed by incubation at 4 °C overnight with anti phospho-tyrosine antibody (1:300 dilution, Clone PY20, Merck Millipore, Cat. No. 05–947). […] No. S6MQT0101), cells were counterstained with DAPI and observed under fluorescence microscope (1000x, oil immersion). The number of tyrosine phosphoprotein positive spermatozoa were counted in total of 500 spermatozoa and the result was expressed in percentage spermatozoa.

PDE4D = target: T2, PDE4D (Homo sapiens, UniProt Q08499); experiment: ITC binding of PTX to the catalytic domain of PDE4D
T2 construct: Catalytic domain of each protein was cloned between BamHI and XhoI restriction sites in; 6xHis-SUMO (N, cleaved yes); made in house; host or cells: E. coli Rosetta 2 (DE3)
T2 sequence (Q08499 386-715 limits assumed): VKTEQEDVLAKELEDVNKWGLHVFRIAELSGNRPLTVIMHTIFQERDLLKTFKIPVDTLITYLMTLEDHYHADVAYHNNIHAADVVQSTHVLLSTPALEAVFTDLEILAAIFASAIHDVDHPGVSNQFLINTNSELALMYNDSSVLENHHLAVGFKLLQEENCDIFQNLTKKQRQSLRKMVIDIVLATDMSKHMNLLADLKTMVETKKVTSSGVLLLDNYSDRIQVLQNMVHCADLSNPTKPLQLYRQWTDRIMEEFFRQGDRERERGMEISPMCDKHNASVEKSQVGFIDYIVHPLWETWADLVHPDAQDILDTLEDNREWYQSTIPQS
Source text: Supplementary Materials and Methods
Cloning, expression and purification of catalytic domains of PDE4A, […]
The full length human PDE4A (1005 bp), PDE4D (981 bp) and PDE10A (957 bp) cDNAs, cloned in pET28a(+) expression vector, were purchased from Biomatik, Canada.
Catalytic domain of each protein was cloned between BamHI and XhoI restriction sites in 6x-His-SUMO-tagged bacterial expression vector. The catalytic domain constructs of PDE4A, PDE4D and PDE10A were transformed in E. coli Rosetta 2 (DE3) competent cells for expression. After growing the transformed cells at 37 °C, till the OD 600nm reached 0.5-0.7, the culture containing constructs of PDE4A and PDE4D were induced with 0.1 mM IPTG and the cultures were incubated at 15 °C for 16-18 h, whereas those with PDE10A constructs were induced with 0.5 mM at incubated for 35 -40 h followed by cell harvesting. Harvested cells were suspended in lysis buffer (500 mM NaCl, 50 mM Tris - Cl pH 8.0, 10 mM Imidazole, 3 mM β-mercaptoethanol) and lysed by sonication (Qsonica). The lysates were cleared by centrifugation at 20,000g for 1h and supernatant was passed through Ni-NTA affinity column (His-Trap, GE Healthcare). Eluted proteins were subjected to salt exchange with a buffer containing 100 mM NaCl, 50 mM Tris-Cl pH 8.0, 3 mM β-mercaptoethanol. The collected proteins were further purified using ion - exchange chromatography (Q column, Hi-Trap, GE Healthcare) followed by overnight treatment with ULP1 at 4 °C to cleave 6xHis-SUMO tag. The tag was separated from proteins by a subsequent Ni-NTA purification. The proteins were further purified on size exclusion 16/600 200 pg column (GE Healthcare) pre-equilibrated with a buffer (100 mM […]
NaCl, 50 mM Tris pH 8.0, 5% Glycerol, 3 mM β-mercaptoethanol). After purifying with a gel filtration column, purity was determined on 12% SDS -PAGE and all three proteins […]
concentrated to 20mg/ml, flash cooled with liquid nitrogen and stored at -80°C.
Isothermal titration calorimetry (ITC) binding studies […]
of PDE4A, PDE4D and PDE10A were determined at 25°C, using Affinity ITC (TA instruments). […]

mouse bone marrow cells [5] = conditions: cited from earlier work; remark: listed apart in the source
human lymphocytes cells = conditions: cited from earlier work
[6] = asthenozoospermic samples, 24 h

Structure (SMILES)	cytotoxic effect on mouse bone marrow cells (mouse bone marrow cells [1])	progressive motility vs controls (ejaculated spermatozoa; asthenozoospermic samples)	total motility vs controls (ejaculated spermatozoa; asthenozoospermic samples)	percentage of total motile spermatozoa vs controls (ejaculated spermatozoa; normozoospermic samples)	acrosome reacted spermatozoa ([2]; 1 h, control 15.21%)	acrosome reacted spermatozoa ([2]; 2 h)	spermatozoa with damaged DNA (TUNEL) [3]	Kd (PDE10A-PTXm-1 complex; PDE10A-PTXm-1 complex with 2:1 molar ratio)	spermatozoa with tyrosine phosphorylated proteins [4]	change in enthalpy (ΔH) (PDE4D)	change in entropy (ΔS) (PDE4D)	stoichiometry (N) (PDE4D)	cytotoxic effect on mouse bone marrow cells (mouse bone marrow cells [1]; mouse, in vivo)	percentage of progressively motile spermatozoa vs PTX (ejaculated spermatozoa; [6])	percentage of total motile spermatozoa vs PTX (ejaculated spermatozoa; [6])	percentage of progressively motile spermatozoa vs C, VC and PTX (ejaculated spermatozoa; normozoospermic samples, 24 h)	genotoxic effect on mouse bone marrow cells in vivo (mouse bone marrow cells [5])	decrease of the binding affinity of PTX towards PDE10A in presence of PTXm-1 (PDE10A-PTXm-1 complex; PDE10A-PTXm-1 2:1 molar ratio)	genotoxic effect on human lymphocytes cells in vitro (human lymphocytes cells)
CC(=O)CCCCn1c(=O)c2c(ncn2C)n(C)c1=O [PTX, pentoxifylline]	do not have any cytotoxic effect	significantly higher	significantly higher	increased	24.25%	34.28%	10.25%	350 µM	24.75%	~ -10.56±1.07 kcal/mol	~ -16.47 cal/mol.K	~ 0.93±0.07	–	–	–	–	–	–	–
COc1ccc2cc(/C=C/C(=O)CCCCn3c(=O)c4c(ncn4C)n(C)c3=O)ccc2c1 [PTXm-1]	–	significantly higher	significantly higher	increased	15.78%	25.17%	–	–	23.25%	–	–	–	do not have any cytotoxic effect	considerably (P < 0.001) higher percentage	considerably (P < 0.001) higher percentage	higher percentage of progressively motile spermatozoa	significantly lower genotoxic effect	~ eight-fold decrease	significantly lower genotoxic effect
